Data: patent publication US20090252754A1, “Vaccines containing the hiv tat protein as an adjuvant for the enhancement of cytotoxic t-cell responses” (priority 2003, published 2009)

Columns and labels:
[1] = tested on: proteasomes purified from MIN-Tat and MIN-0; assay: In vitro degradation of CLG+5 epitope precursor by purified proteasomes (HPLC, IFN-γ ELISPOT of fractions); format: biochemical, human
Procedure: 500 μg of synthetic peptide were incubated with 127 μg of purified proteasomes in 300 μl of buffer (25 mM Tris HCL pH 7.4, 5 mM MgCl2, 500 μM EDTA pH 8.0, 1 mM DTT, 2 mM ATP) at 37° C. At the indicated time points, 60 μl of sample were collected and the reaction was stopped by adding 2 volumes of ethanol at 0° C.
Digestion mixtures were centrifuged at 5000 rpm for 5 minutes. 80 μl of supernatant were collected and peptide digests were separated by reverse-phase HPLC at the flow rate of 0.7 ml/min, as follows: linear gradient of 0-100% of solution B (acetonitrile 100% with 0.1% TFA) for 25 min, followed by linear gradient of 0-100% for solution A (water 100% with 0.1% TFA) for 5 min. The fractionation was simultaneously monitored at 210 and 280 nm. […]
Plates were incubated for 24 h at 37° C., 5% CO2 and then washed three times with PBS and three times with washing buffer (PBS 0.05% Tween 20) before 100 μl of biotinylated anti-IFN-γ MAb (1 μg/ml; Endogen, Woburn, Mass.) were added, and incubated at 37° C. for 60 min. […] Wells were washed, and individual IFN-γ producing cells were detected using ABC chromogen kit (Sigma, Saint Louise, Mo.). IFN-γ-secreting T cells were counted by direct visualisation. The number of specific IFN-γ-secreting T cells, expressed as spot-forming cells (SFC) per 10^6 cells, was calculated by subtracting the negative control value. […]

LMP2 = LMP2 expression in splenocytes of mice treated i.m. with Tat (Western blot); format: in vivo; settings: Balb/c mice, 1 μg i.m., 3 consecutive treatments
Description: Equal amounts of proteins were loaded on a 12% SDS-PAGE gel and electroblotted onto Protran nitrocellulose membranes (Schleicher & Schuell, Keene, Hampshire, USA). The blots were probed with antibodies specific for α2, LMP2, LMP7, MECL1, and PA28α subunits (Affinity, Exeter, UK) and developed by enhanced chemiluminescence (ECL, Amersham Pharmacia Biotech, Uppsala, SW).
Animal use was according to national and institutional guidelines. Seven-to-eight week old female Balb/c mice (Nossan, Milan, Italy) were injected with native monomeric biologically active Tat protein (1 μg) resuspended in degassed sterile PBS. Control mice were injected with oxidised Tat (1 μg) or with PBS alone. Samples (100 μl) were given by intramuscular (i.m.) injections in the quadriceps muscles of the posterior legs. Each experimental group consisted of three mice, and the experiment was repeated twice. Mice were boosted at days 11 and 20 after the first injection. Seven days after the last injection, animals were anaesthetised intraperitoneally (i.p.) with 100 μl of isotonic solution containing 1 mg of Inoketan (Virbac, Milan, Italy), and 200 μg Rompun (Bayer, Milan, Italy) and sacrificed to collect spleens. Mononuclear cells from individual spleens were purified using cells strainers, resuspended in PBS containing 20 mM EDTA, and treated with a red blood cells lysis buffer for 4 minutes at room temperature. […]

[2] = tested on: proteasome subunits (α2, LMP2, LMP7, MECL1) in Jurkat cells; assay: Western blot of proteasome subunits in Jurkat cells expressing or treated with Tat, Tat mutants or Tat peptides; format: cell-based, human
Procedure: Jurkat T cells expressing Tat or mutated Tat (referred to as Tat22, wherein a Cys at position 22 is mutated) have previously been described (1). Cells were cultured in a medium supplemented with 800 μg/ml neomycin (Sigma, St. Louise, […].).
Cells were lysed with glass beads as previously described (4). Supernatants were ultracentrifuged for 1 h at 100,000 g and loaded into an affinity column containing a matrix derivatised with the MCP21 mAb specific for the α2 subunit of the proteasome (Affinity, Exeter, UK). Proteasomes were eluted with 25 mM Tris-HCl pH 7.5 containing 2 M NaCl, and 0.5 ml fractions were collected. Homogeneity of the eluted material was confirmed by analysis of an aliquot by SDS 12% PAGE and Coomassie blue staining of the gel. Fractions containing proteasomes were combined and dialysed against 25 mM Tris-HCl pH 7.5. Protein concentration was determined using the BCA method (Pierce Chemical, Rockford, Ill.).
Equal amounts of proteins, or equal amounts of purified proteasomes, were loaded on a 12% SDS-PAGE and electro-blotted onto Protran nitrocellulose membranes (Schleicher & Schuell, Keene, Hampshire, USA). Blots were probed with Abs specific for α2, LMP2 LMP7, MECL1, and PA28α subunits (Affinity), and developed by enhanced chemi-luminescence (ECL, Amersham Pharmacia Biotech, Uppsala, SW).

[3] = endogenous expression of Tat in Jurkat cells

Q: For “Tat: HIV-1 Tat protein from HTLV type IIIB isolate, expressed in E. Coli or endogenously in cells; wild type SEQ ID NO 284”, which “degradation of the CLG+5 peptide precursor” value ([1]; proteasomes from Tat-expressing cells (MIN-Tat) vs empty vector (MIN-0)) is on record?
A: more efficiently

Q: And the “generation of the immunogenic CLG peptide” value ([1]; proteasomes from Tat-expressing cells, 120 min digests, CLG-specific CTL ELISPOT)?
A: generate with more efficiency

Q: What about the “LMP2 expression in splenocytes” value (LMP2) of the same substance?
A: down-regulation

Q: What about the “LMP2 expression in total cell lysates” value ([2]; Jurkat cells treated for 24 h with 0.1 μg/ml) of the same substance?
A: induced down-regulation

Q: What about the “expression of LMP2 subunit from purified proteasomes” value ([2]; Jurkat cells, exogenous native Tat, 24 h, 0.1-1 μg/ml) of the same substance?
A: maximal down-modulation

Q: What about the “expression of LMP2” value [2, 3] of the same substance?
A: down-regulation

Q: And the “expression of LMP7” value [2, 3]?
A: up-regulation

Q: And the “expression of MECL1” value [2, 3]?
A: up-regulation
